Results: patent publication US6281356A, “Substituted pyrroles” (Hoffmann-La Roche Inc., priority 2000, dated 2001)

Each compound was assayed on epithelial breast carcinoma cell line (MDAMB-435) (assay: Antiproliferative activity (growth inhibition, MTT), epithelial breast carcinoma cell line MDAMB-435). Conditions: Homo sapiens, MDA-MB-435, 120 h, 5 days post drug addition, 0.1% DMSO, read-out: IC50 (growth inhibition of MDAMB-435 cells).
Format: cell-based
Protocol: The epithelial breast carcinoma cell line (MDAMB-435) was purchased from ATCC (American Type Cell Culture Collection) and was grown in culture medium as recommended by ATCC. For analysis of the effect of various compounds of formula I on the growth of these cells, the cells were plated at a concentration of 1500 cells/well in a 96 well tissue culture plate ("test plate"). The day after the cells were plated, the compounds to be analyzed were dissolved in 100% DMSO (dimethyl sulfoxide) to yield at 10 mM stock solution. Each compound was diluted in H2 O to 1 mM and was added to triplicate wells in the first row of a 96 well master plate containing medium to yield a final concentration of 40 μM. The compounds were then serially diluted in medium in the "master plate". The diluted compound(s) were then transferred to test plates containing cells. A row of vehicle "control cells" received DMSO. The final concentration of DMSO in each well was 0.1%. 5 days post drug addition, the plate was analyzed as described below.
MTT (3-(4-5 methyl thiazole-2-yl)-2,5-diphenyl tetrazolium bromide; thiazolyl blue) was added to each well to yield a final concentration of 1 mg/ml. The plate was then incubated at 37° C. for 21/2-3 hours. The MTT-containing medium was then removed and 50 μl of 100% ethanol was added to each well to dissolve the formazan. The absorbences were then read using an automated plate reader (Bio-tek microplate reader). IC50 s were calculated using the Reed and Munsch equation, see Am. J. Hygiene Vol. 27 pgs. 493-497,1938.

SMILES	IC50 [µM]
Cc1ccc2c(C3=C(c4cn(C)c5cc(N6CCOCC6)ccc45)C(=O)NC3=O)cn(C)c2c1 [Example 12b, 3(1,6-Dimethyl-1H-indol-3-yl)-4-(1-methyl-6-morpholin-4-yl-1H-indol-3-yl)pyrrole-2,5-dione]	< 0.01
Cn1cc(C2=C(c3c[nH]c4ccccc34)C(=O)NC2=O)c2ccc(N3CCOCC3)cc21 [Example 12c, 3-(1H-Indol-3-yl)-4-(1-methyl-6-morpholin-4-yl-1H-indol-3-yl)pyrrole-2,5-dione]	0.07
COc1ccc2c(C3=C(c4cn(C)c5cc(N6CCCC6)ccc45)C(=O)NC3=O)cn(C)c2c1 [Example 14g, 3-(6-Methoxy-1-methyl-1H-indol-3-yl)-4-(1-methyl-6-pyrrolidin-1-yl-1H-indol-3-yl)pyrrole-2,5-dione]	0.04
Cc1nccn1-c1ccc2c(C3=C(c4cn(C)c5cc([N+](=O)[O-])ccc45)C(=O)NC3=O)cn(C)c2c1 [Example 8b, 3-[1-Methyl-6-(2-methyl-imidazol-1-yl)-1H-indol-3-yl]-4-(1-methyl-6-nitro-1H-indol-3-yl)-pyrrole-2,5-dione]	0.25
CN1CCN(c2ccc3c(C4=C(c5cn(C)c6ccccc56)C(=O)NC4=O)cn(C)c3c2)CC1 [Example 12k, 3-(1-Methyl-1H-indol-3-yl)-4-[1-methyl-6-(4-methyl-piperazin-1-yl)-1H-indol-3-yl]pyrrole-2,5-dione]	3.41
Cn1cc(C2=C(c3c[nH]c4cc(N5CCCC5)ccc34)C(=O)NC2=O)c2ccc(F)cc21 [Example 12e, 3-(6-Fluoro-1-methyl-1H-indol-3-yl)-4-(6-pyrrolidin-1-yl-1H-indol-3-yl)pyrrole-2,5-dione]	0.003
Cn1cc(C2=C(c3c[nH]c4ccccc34)C(=O)NC2=O)c2ccc(-c3ccco3)cc21 [Example 2i, 3-(6-Furan-2-yl-1-methyl-1H-indol-3-yl)-4-(1H-indol-3-yl)pyrrole-2,5-dione]	0.03
Cn1cc(C2=C(c3cn(C)c4cc(-c5cccs5)ccc34)C(=O)NC2=O)c2ccccc21 [Example 3, 3-(1-Methyl-1H-indol-3-yl)-4-(1-methyl-6-thiophen-2-yl-1H-indol-3-yl)pyrrole-2,5 dione]	0.04
Cn1nccc1-c1ccc2c(C3=C(c4cn(C)c5cc(Br)ccc45)C(=O)NC3=O)cn(C)c2c1 [Example 2l, 3-(6-Bromo-1-methyl-1H-indol-3-yl)-4-[1-methyl-6-(2-methyl-2H-pyrazol-3yl)-1H-indol-3-yl]pyrrole-2,5-dione]	0.07
Cn1cc(C2=C(c3cn(C)c4cc(-n5cccn5)ccc34)C(=O)NC2=O)c2ccc(Br)cc21 [Example 8e, 3-(6-Bromo-1-methyl-1H-indol-3-yl)-4-(1-methyl-6-pyrazol-1-yl-1H-indol-3-yl)pyrrole-2,5-dione]	0.025
Cn1nccc1-c1ccc2c(C3=C(c4cn(C)c5cc([N+](=O)[O-])ccc45)C(=O)NC3=O)cn(C)c2c1 [Example 2j, 3-[1-Methyl-6-(2-methyl-2H-pyrazol-3-yl)-1H-indol-3-yl]-4-(1-methyl-6-nitro-1H-indol-3-yl)pyrrole-2,5-dione]	0.02
Cn1cc(C2=C(c3cn(C)c4cc(N5CCOCC5)ccc34)C(=O)NC2=O)c2ccc(Br)cc21 [Example 14d, 3-(6-Bromo-1-methyl-1H-indol-3-yl)-4-(1-methyl-6-morpholin-4-yl-1H-indol-3-yl)pyrrole-2,5-dione]	0.003
Cn1cc(C2=C(c3cn(C)c4cc([N+](=O)[O-])ccc34)C(=O)NC2=O)c2ccc(-n3cccn3)cc21 [Example 8c, 3-(1-Methyl-6-nitro-1H-indol-3-yl)-4-(1-methyl-6-pyrazol-1-yl-1H-indol-3-yl)pyrrole-2,5-dione]	0.02
Cn1cc(C2=C(c3c[nH]c4cc(N5CCOCC5)ccc34)C(=O)NC2=O)c2ccccc21 [Example 12o, 3-(1-Methyl-1H-indol-3-yl)-4-(6-morpholin-4-yl-1H-indol-3-yl)pyrrole-2,5-dione]	0.037
Cn1cc(C2=C(c3cn(C)c4cc([N+](=O)[O-])ccc34)C(=O)NC2=O)c2ccc(-c3cccs3)cc21 [Example 4d, 3-(1-Methyl-6-nitro-1H-indol-3-yl)-4-(1-methyl-6-thiophen-2-yl-1H-indol-3yl)-pyrrole-2,5-dione]	0.02
Cn1cc(C2=C(c3c[nH]c4ccccc34)C(=O)NC2=O)c2ccc(N3CCCC3)cc21 [Example 12i, 3-(1H-indol-3-yl)-4-(1-methyl-6-pyrrolidin-1-yl-1H-indol-3-yl)-pyrrole-2,5-dione]	0.08
COc1ccc2c(C3=C(c4cn(C)c5cc(N6CCOCC6)ccc45)C(=O)NC3=O)cn(C)c2c1 [Example 14a, 3-(6-Methoxy-1-methyl-1H-indol-3-yl)-4-(1-methyl-6-morpholin-4-yl-1H-indol-3-yl)pyrrole-2,5-dione]	0.02
COCn1cc(C2=C(c3cn(C)c4cc([N+](=O)[O-])ccc34)C(=O)NC2=O)c2ccc(N3CCCC3)cc21 [Example 12g, 3-(1-Methoxymethyl-6-pyrrolidin-1-yl-1H-indol-3-yl)-4-(1-methyl-6-nitro-1H-indol-3-yl)pyrrole-2,5-dione]	0.02
Cn1cc(C2=C(c3cn(C)c4cc(N5CCOCC5)ccc34)C(=O)NC2=O)c2ccc(F)cc21 [Example 14b, 3-(6-Fluoro-1-methyl-1H-indol-3-yl)-4-(1-methyl-6-morpholin-4-yl-1H-indol-3-yl)pyrrole-2,5-dione]	0.03
Cn1cc(C2=C(c3cn(C)c4cc(-c5ccsc5)ccc34)C(=O)NC2=O)c2ccccc21 [Example 5, 3-(1-Methyl-1H-indol-3-yl)-4-(1-methyl-6-thiophen-3-yl-1H-indol-3-yl)pyrrole-2,5-dione]	0.04
Cn1cc(C2=C(c3cn(C)c4cc([N+](=O)[O-])ccc34)C(=O)NC2=O)c2ccc(-n3ccnc3)cc21 [Example 8a, 3-(6-Imidazol-1-yl-1-methyl-1H-indol-3-yl)-4-(1-methyl-6-nitro-1H-indol-3-yl)-pyrrole-2,5-dione]	0.03
Cn1cc(C2=C(c3cn(C)c4cc(-n5ccnc5)ccc34)C(=O)NC2=O)c2ccc(C#N)cc21 [Example 10b, 3-[4-(6-Imidazol-1-yl-1-methyl-1H-indol-3-yl)-2,5-dioxo-2,5-dihydro-1H-pyrrole-3-yl]-1-methyl-1H-indole-6-carbonitrile]	0.03
Cn1cc(C2=C(c3cn(C)c4cc(N5CCCC5)ccc34)C(=O)NC2=O)c2ccccc21 [Example 12j, 3-(1-Methyl-1H-indol-3-yl)-4-(1-methyl-6-pyrrolidin-1-yl-1H-indol-3-yl)pyrrole-2,5-dione]	0.06
Cn1cc(C2=C(c3cn(C)c4cc([N+](=O)[O-])ccc34)C(=O)NC2=O)c2ccc(N3CCCC3)cc21 [Example 12d, 3-(1-Methyl-6-nitro-1H-indol-3-yl)-4-(1-methyl-6-pyrrolidin-1-yl-1H-indol-3-yl)pyrrole-2,5-dione]	0.002
Cn1cc(C2=C(c3cn(C)c4cc(-c5ncc[nH]5)ccc34)C(=O)NC2=O)c2ccccc21 [Example 2e, 3-[6-(1H-Imidazol-2-yl)-1-methyl-1H-indol-3-yl]-4-(1-methyl-1H-indol-3-yl)pyrrole-2,5-dione]	0.08
COCc1ccc2c(C3=C(c4cn(C)c5cc(N6CCOCC6)ccc45)C(=O)NC3=O)cn(C)c2c1 [Example 16, 3-(6-methoxymethyl-1-methyl-1H-indol-3-yl)-4-(1-methyl-6-morpholin-4-yl-1H-indol-3-yl)pyrrole-2,5-dione]	1.18
